Values joined by “and” are separate entries in the source; they are usually repeats but may differ in a detail not shown here. Equal values may be shown once. “Also recorded” adds a separate entry of the source. Read-outs that look alike come from different tables or passages of the source.
Assays:
DU145 = experiment: IC50 versus treatment time, DU145; format: cell-based; details: DU145 cancer cells
Protocol: (§1) The studies described herein discovered counter-intuitively that cancer cells and cancer stem cells requires much shorter exposure than normal cells to be killed by Compound 1. Normal cells can tolerate up to 24 hours of exposure to Compound 1. Furthermore, the studies here discovered that normal cells can recover after a short period of no-drug exposure, while cancer cells cannot recover once they are exposed to a certain concentration of the Compound 1 for at least 2 hours. Based on these studies, a special pharmacokinetic exposure [termed selective pharmacokinetic profile (SPP), or preferred pharmacokinetic profile (PPP), which is used interchangeably in this publication] was designed for Compound 1 using the data shown below in Table 14 for achieving selective antitumor activity in patients (FIG. 24).

[1] = system: cancer cells or cancer stem cells; experiment: In vitro IC50 on cancer cells or cancer stem cells; format: cell-based
[2] = system: FaDu human head and neck cancer; experiment: Antitumor activity in subcutaneous FaDu xenograft mice; format: in vivo
Protocol: In the studies shown in FIG. 8, immunosuppressed mice with established subcutaneous FaDu human head and neck cancer were given indicated amount of hand grounded Compound 1 with Crystal Form 1, or vehicle control orally (po). Compound 1 was formulated in […]™. All regimens were administered daily (qd). Tumor sizes were evaluated periodically during treatment.
In the study shown in FIG. 9, immunosuppressed mice with established subcutaneous FaDu human head and neck cancer were given 100 mg/kg of micronized Compound 1 produced with the synthetic process described in FIGS. 5A and 5B (first crop), or vehicle control orally (po). Compound 1 was formulated in […]™. All regimens were administered daily (qd). Tumor sizes were evaluated periodically during treatment. Form 2 has been successfully manufactured by a current good manufacturing practice (cGMP) process and received approval from the FDA and Health Canada to be used in clinical trials.
Form 3 can only be generated from Form 1 using a specially designed slurry process described herein. […] In the study shown in FIG. 10, immunosuppressed mice with established subcutaneous FaDu human head and neck cancer were given 200 mg/kg of Compound 1 with hand grounded Crystal Form 1 or Form 3, or vehicle control orally (po). Compound 1 was formulated in gelucire. All regimens were administered daily (qd). Tumor sizes were evaluated periodically during treatment. This polymorph has been successfully manufactured by a cGMP process and received approval from FDA and Health Canada to be used in clinical trials.
The anti-tumor activity of particles of Compound 1 with different particle size ranges is illustrated in FIG. 15, and the pharmacokinetic data for particles of Compound 1 with different particle size ranges is illustrated in FIGS. 16-18. In the study shown in FIG. 15, immunosuppressed mice with established subcutaneous FaDu human head and neck cancer were given indicated amount of Compound 1 with indicated particle size, or vehicle control orally (po). All regimens were administered daily (qd). Tumor size was evaluated periodically.
In an experiment, a formulation of Compound 1 particles sieved to 160 micron was tested in the model of immunosuppressed mice with established subcutaneous xenograft FaDu human head and neck cancer. The pharmaceutical composition was formulated as 80 mg/ml in 9% Gelucire, 20% Vitamin E TPGS (Table 3). […] All regimens were administered daily (qd).
In an experiment, Compound 1 crystals were milled to a median particle size of about 20 micron. […] All regimens were administered daily (qd).
FaDu human head and neck cancer cells were inoculated subcutaneously into female athymic nude mice (6×10^6 cells/mouse) and allowed to form palpable tumors. When the tumors reached approximately 100 mm^3, the animals were treated orally (po) with Compound 1 at 100 mg/kg or vehicle control daily. Compound 1 was formulated at 10 mg/ml in 20% gelucire. Tumors and bodyweights were measured throughout treatment (FIG. 15).
Daily examinations into the health status of each animal were also conducted. Body weights were checked every three days. Food and water was supplied daily according to the animal husbandry procedures of the facility. Treatment producing>20% lethality and or >20% net body weight loss were considered toxic. Results are expressed as mean tumor volume (mm^3)±SE. P Values<0.05 are considered to be statistically relevant.
Male or female athymic nude mice 4-5 weeks (Charles River Laboratories, Wilmington, Mass.), were acclimated to the animal housing facility for at least 1 week before study initiation. […]

advanced solid tumors = experiment: Phase I clinical trial: tumor response (RECIST 1.1) and progression free survival; format: in vivo, human
Excerpt: As of Feb. 7, 2011, 42 cancer patients with various advanced solid tumors who have failed chemotherapies were enrolled in the study.
Of the 42 patients dosed, 24 were evaluable for tumor response as of Feb. 7, 2011; 16 (16/24 evaluable patients) achieved stable disease (8 to 75+ weeks).

[3] = system: cancer cells and normal cells; experiment: Exposure time/concentration selectivity, cancer cells versus normal cells; format: cell-based
Protocol: as §1
Preferably, cancer cells must be exposed to a Compound of the Invention such as Compound 1, particles, polymorphs and/or purified forms thereof for 4 hours at concentration greater than 0.2 μM in order to induce cancer cell death. […] A reduced particle size of Compound 1 achieved this preferred pharmacokinetic pattern and selective activity.
The selective activity of Compound 1 in killing cancer cells and sparing normal cells is represented by the data in Table 14 and illustrated in FIG. 24.

[4] = patient 0001, total daily dose 20 mg qd, Colon adenocarcinoma
[5] = patient 0013, total daily dose 400 mg bid, Gastric adenocarcinoma
[6] = patient 0014, total daily dose 400 mg bid, Ovarian cancer
[7] = patient 0015, total daily dose 400 mg bid, Colon adenocarcinoma
[8] = patient 0020, total daily dose 600 mg bid, Breast Cancer

CC(=O)c1cc2c(o1)C(=O)c1ccccc1C2=O [Compound 1, 2-acetyl-4H,9H-naphtho[2,3-b]furan-4,9-dione]
IC50 (DU145; treatment time 12-24 h): < 200 nM
IC50 (DU145; Homo sapiens, DU-145, treatment time 4-12 h): < 200 nM
IC50 ([1]; preclinical studies, read-out: IC50 to kill cancer cells or cancer stem cells): 100 to 200 nM
IC50 ([1]; read-out: IC50 of the compound in vitro): 30 to 500 nM
anti-tumor activity ([2]; composition of particle size less than 5 micron, mice): potent anti-tumor activity
efficacy ([2]; composition with particle size greater than 20 micron, mice): no or weak efficacy
efficacy ([2]; median particle size about 2 micron, 100 mg/kg po daily, 20% gelucire, 100 mg/kg): surprisingly enhanced anti-tumor activity; also recorded: good efficacy; also recorded: strong efficacy; also recorded: potent efficacy
efficacy ([2]; median particle size about 2 micron, 100 mg/kg po daily, 20% gelucire, listed as naphthofuran compound, 100 mg/kg): dramatically enhanced efficacy
efficacy ([2]; median particle size about 20 micron, 200 mg/kg daily oral, 200 mg/kg): weak or moderate efficacy
efficacy ([2]; median particle size about 20 micron, 200 mg/kg daily oral, listed as naphthofuran compound, 200 mg/kg): relative weak
anti-tumor activity ([2]; nanoparticles, D50 about 100 nanometers (110.4 nanometers)): reduction of anti-tumor activity
efficacy ([2]; particles sieved to 160 micron (150 micron), 400 mg/kg daily oral, 400 mg/kg): no efficacy
efficacy ([2]; particles sieved to 160 micron (150 micron), 400 mg/kg daily oral, listed as naphthofuran compound, 400 mg/kg): no efficacy
patients showing prolonged SD (>12 weeks) (advanced solid tumors; RECIST 1.1): 12 patients
evaluable patients with SD/MR by RECIST (advanced solid tumors; as of Feb. 7, 2011): 16/24 and 16 out of 24
progression free survival (advanced solid tumors; blood drug concentration above 1 uM, diverse cancers (FIG. 23)): increase in progression free survival
patients in whom new metastatic lesions were prevented (advanced solid tumors; of patients dosed): 83%
patients showing no metastatic tumors (advanced solid tumors; out of 24 evaluable patients with advanced refractory cancers): over 80%
response of colon cancer metastatic lesion to kidney (advanced solid tumors; patient 0001, 20 mg daily (FIG. 19)): complete regression; also recorded: signs of potent antitumor activity
New Lesions (advanced solid tumors; [4]): 1
regression (advanced solid tumors; [4]): (regression 27.6%)
New Lesions (advanced solid tumors; patient 0002, total daily dose 40 mg qd, Gastric adenocarcinoma): 3
New Lesions (advanced solid tumors; patient 0003, total daily dose 80 mg qd, Head and Neck carcinoma): 0
New Lesions (advanced solid tumors; patient 0004, total daily dose 80 mg bid, Colon adenocarcinoma): 0
New Lesions (advanced solid tumors; patient 0006, total daily dose 160 mg bid, Lung adenocarcinoma): 0
New Lesions (advanced solid tumors; patient 0008, total daily dose 320 mg bid, Colon adenocarcinoma): 2
New Lesions (advanced solid tumors; patient 0010, total daily dose 320 mg bid, Colon adenocarcinoma): 0
New Lesions (advanced solid tumors; patient 0011, total daily dose 320 mg bid, Angiosarcoma): 0
New Lesions (advanced solid tumors; patient 0012, total daily dose 320 mg bid, Prostate cancer): 0
Best Response, remark (advanced solid tumors; [5]): (signs of regression)
New Lesions (advanced solid tumors; [5]): 0
Best Response, remark (advanced solid tumors; [6]): (CA 125 normalization)
New Lesions (advanced solid tumors; [6]): 0
CEA change (Best Response, remark) (advanced solid tumors; [7]): (CEA? >30-50%)
New Lesions (advanced solid tumors; [7]): 0
New Lesions (advanced solid tumors; patient 0016, total daily dose 600 mg bid, Pancreatic adenocarcinoma): 0
Best Response, remark (advanced solid tumors; [8]): (hollow tumor)
New Lesions (advanced solid tumors; [8]): 0
New Lesions (advanced solid tumors; patient 0021, total daily dose 800 mg bid, Chondrosarcoma): 0
New Lesions (advanced solid tumors; patient 0022, total daily dose 800 mg bid, Prostate cancer): 0
New Lesions (advanced solid tumors; patient 0023, total daily dose 800 mg bid, Adenocorticoid): 0
New Lesions (advanced solid tumors; patient 0024, total daily dose 1000 mg bid, Rectal cancer): 0
New Lesions (advanced solid tumors; patient 0027, total daily dose 1400 mg bid, Colon adenocarcinoma): 2
New Lesions (advanced solid tumors; patient 0032, total daily dose 200 mg tid, Colon adenocarcinoma): 0
New Lesions (advanced solid tumors; patient 0037, total daily dose 500 mg tid, Colon adenocarcinoma): 0
progression free survival (advanced solid tumors; patients with exposure above 1.6 uM for at least 4 hours): improvement in progression free survival
selectivity ([3]; concentration greater than from about 0.5 to about 3 μM for less than 24 hours): selective activity in killing cancer cells and sparing normal cells
selectivity ([3]; concentrations of about or above 0.2 and 30 μM for from about 4 hours up to about 24 hours): selective killing of cancer cells and sparing of normal cells
killing of cancer cells ([3]; concentrations of less than 0.5 μM, regardless of exposure time): no killing of cancer cells
selectivity ([3]; continuous exposure for greater than 24 hours): loss of selectivity
exposure time tolerated by normal cells ([3]; normal cells): up to 24 hours

Source: US9084766B2, “Compounds and compositions for targeting cancer stem cells” (Boston Biomedical, Inc., priority 2010, dated 2015)
